Assay results from article PMC11722313 (bioRxiv, 2025).

Assays:
[1] = target: IDE R668A (human insulin degrading enzyme, cysteine-free) (Homo sapiens, UniProt P14735, C110L/C171S/C178A/C257V/C414L/C573N/C590S/C789S/C812A/C819A/C904S/C966N/C974A/R668A); experiment: Competition assay: inhibition of MCA-[…]; assay type: biochemical; conditions: 5 nM IDE R668A, 5 μM MCA-RPPGFSAFK(Dnp), pH 7.5, 37° C; average of three technical replicates
[2] = test system: IDE; conditions: time-resolved SAXS; ref Zhang et al., 2018; cited from earlier work
[3] = test system: IDE; experiment: Cryo-EM of IDE in the presence of sub-saturating insulin; set-up: species or system human
[4] = Size-exclusion chromatography elution of IDE constructs; assay type: physicochemical, human; conditions: S200 SEC column
[5] = SEC-SAXS of IDE constructs; assay type: physicochemical, human; conditions: Guinier method
[6] = test system: IDE; conditions: HDX-MS; ref Zhang et al, 2018; cited from earlier work
[7] = IDE:insulin 2:1, compared with previously reported O and pO states

IDE R668A (human insulin degrading enzyme, cysteine-free), sequence (P14735 42-1019 C110L/C171S/C178A/C257V/C414L/C573N/C590S/R668A/C789S/C812A/C819A/C904S/C966N/C974A limits assumed): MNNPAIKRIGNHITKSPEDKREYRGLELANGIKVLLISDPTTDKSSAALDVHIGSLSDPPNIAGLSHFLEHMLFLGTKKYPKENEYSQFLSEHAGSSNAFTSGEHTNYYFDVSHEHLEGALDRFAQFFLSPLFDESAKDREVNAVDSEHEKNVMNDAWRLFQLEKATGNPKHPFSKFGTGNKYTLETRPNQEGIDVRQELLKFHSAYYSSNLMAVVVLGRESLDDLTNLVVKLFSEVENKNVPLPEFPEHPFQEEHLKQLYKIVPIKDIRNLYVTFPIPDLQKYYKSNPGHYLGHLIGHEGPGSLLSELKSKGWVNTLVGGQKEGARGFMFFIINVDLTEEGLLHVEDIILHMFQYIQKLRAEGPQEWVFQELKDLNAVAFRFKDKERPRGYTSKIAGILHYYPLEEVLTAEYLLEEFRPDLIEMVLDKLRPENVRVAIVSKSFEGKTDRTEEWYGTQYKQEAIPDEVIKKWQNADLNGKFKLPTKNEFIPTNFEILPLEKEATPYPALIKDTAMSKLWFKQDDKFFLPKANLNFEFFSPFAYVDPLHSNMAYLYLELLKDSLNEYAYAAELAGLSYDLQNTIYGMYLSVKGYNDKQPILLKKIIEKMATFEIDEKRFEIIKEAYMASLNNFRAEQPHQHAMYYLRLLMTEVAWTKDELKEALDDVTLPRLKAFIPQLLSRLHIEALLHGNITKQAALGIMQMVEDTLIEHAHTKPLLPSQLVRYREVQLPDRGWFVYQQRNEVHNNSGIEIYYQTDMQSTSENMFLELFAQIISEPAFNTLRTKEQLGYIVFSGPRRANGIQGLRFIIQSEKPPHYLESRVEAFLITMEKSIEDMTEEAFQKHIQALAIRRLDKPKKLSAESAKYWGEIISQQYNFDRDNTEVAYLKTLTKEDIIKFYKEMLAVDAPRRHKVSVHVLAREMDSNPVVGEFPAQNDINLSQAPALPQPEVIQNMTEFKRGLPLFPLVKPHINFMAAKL

For “Aβ(1–40): amyloid-β 1–40, an unstructured substrate of IDE”, the “competition of MCA-RPPGFSAFK(Dnp) degradation, IDE R668A (in words)” value [1] was “did not exhibit a dose-dependent response to the presence of Aβ and the data could not be fit to any kinetic equation”.

For “insulin: IDE substrate; purchased from MP Biomedicals (#0219390010) for enzymatic assays, SIGMA (91077C) for cryo-EM”, the “time constant tau for the insulin induced open to closed transition” value [2] is listed as ~ 100 milliseconds, the “closing of pO and O subunits in presence of insulin (D1-D4 COM distance)” value [3, 7] is listed as 3–5 Å and the “reduction of D1-D2-D3-D4 COM dihedral in presence of insulin” value [3, 7] is listed as 5–10 °. The “dominant IDE state with sub-saturating insulin” value ([3]; IDE:insulin molar ratio 2:1, cryo-EM) was “the pC/pC was still found to be dominant”.

For “R668A: IDE carrying a R668 to alanine (R668A) point mutation”, the “SEC elution relative to WT IDE” value [4] was “eluted slightly earlier than WT IDE” and the “Rg (Guinier)” value [5] was 54.7 +/− 0.4 Å.

For O=C(C[C@@H](Cc1ccc2ccccc2c1)n1cc(CNC(=O)c2ccc(F)cc2)nn1)NO [BDM-44768], the “deuterium exchange of the R668-containing peptide vs apo-IDE” value [6] is given as “the peptide containing R668 shows reduced deuterium exchange relative to apo-IDE”.
